# Test results reported in article PMC3326533 (Cell, 2008).
# Target: XPD (S. acidocaldarius) (Sulfolobus acidocaldarius, UniProt Q4JC68)
# Conditions: ssDNA-stimulated; temperature and pH not stated here
# XPD (S. acidocaldarius), sequence (Q4JC68 whole entry): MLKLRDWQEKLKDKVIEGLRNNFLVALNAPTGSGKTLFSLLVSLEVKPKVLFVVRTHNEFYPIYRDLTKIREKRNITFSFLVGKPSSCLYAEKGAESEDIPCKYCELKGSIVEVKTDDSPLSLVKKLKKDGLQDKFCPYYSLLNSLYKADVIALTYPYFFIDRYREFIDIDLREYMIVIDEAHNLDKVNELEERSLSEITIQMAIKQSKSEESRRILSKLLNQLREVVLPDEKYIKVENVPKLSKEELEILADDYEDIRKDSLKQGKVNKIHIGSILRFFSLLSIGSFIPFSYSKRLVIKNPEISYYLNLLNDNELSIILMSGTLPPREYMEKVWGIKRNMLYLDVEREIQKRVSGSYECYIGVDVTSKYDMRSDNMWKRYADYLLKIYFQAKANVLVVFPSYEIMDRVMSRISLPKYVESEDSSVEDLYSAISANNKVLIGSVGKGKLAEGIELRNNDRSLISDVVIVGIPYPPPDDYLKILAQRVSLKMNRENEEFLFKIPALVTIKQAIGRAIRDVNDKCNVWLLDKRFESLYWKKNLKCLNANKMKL
smiles,measurement,value
Nc1ncnc2c1ncn2[C@@H]1O[C@H](COP(=O)(O)OP(=O)(O)OP(=O)(O)O)[C@@H](O)[C@H]1O [ATP],ATPase rate,Plot of the ssDNA-stimulated ATPase activities of the indicated wild-type and mutant proteins
